Results on 39 molecules are retold here after ChEMBL document CHEMBL3763033, “New quinoline derivatives as nicotinic receptor modulators” (Eur J Med Chem, 2016).

Molecules are shown by their SMILES. pEC50, pKi: −log10 of the molar value. Calls of active or inactive are those of the source. The calls are words filed in the database; no cut-off is given here. Where only a bound is given, the exact number is not on record here.

A short description of assay [1]: Displacement of [3H]cytisine from Wistar rat cerebral cortex alpha4beta2* nAChR incubated for 75 mins by competition binding assay. The format is tissue-based.
Assay [2] is filed under the species Rattus norvegicus. Nature of the assay: Displacement of [3H]cytisine from Wistar rat cerebral cortex alpha4beta2* nAChR at 1 uM incubated for 75 mins by competition binding assay. Format: tissue-based. In general terms: In a radioligand displacement assay an active substance lowers the binding of a labelled ligand.
For assay [3], the species on record is Rattus norvegicus. As to the kind of experiment: Displacement of [3H]methyllycaconitine from Sprague-Dawley rat brain alpha7* nAChR at 1 uM incubated for 2.5 hrs by liquid scintillation counting analysis. The format is tissue-based.
The nature of assay [4]: Displacement of [3H]methyllycaconitine from Sprague-Dawley rat brain alpha7* nAChR incubated for 2.5 hrs by liquid scintillation counting analysis. Format: tissue-based.
For assay [5], the species on record is Rattus norvegicus. As to the kind of experiment: Selectivity ratio of Ki for Wistar rat cerebral cortex alpha4beta2* nAChR to Ki for Sprague-Dawley rat brain alpha7* nAChR. Format: tissue-based.
Assay [6] has as its target T1, Neuronal acetylcholine receptor subunit alpha-7 (Homo sapiens, UniProt P36544). Nature of the assay: Agonist activity at human alpha7 receptor expressed in mouse Neuro2a cells assessed as induction of intracellular calcium level preincubated with PNU-120596 for 20 mins followed by compound addition measured every 2 sec for 3 mins by fluorescence microplate reader analysis. Format: cell-based. (A change in cytosolic calcium serves as a functional read-out for many receptors and channels.)

Assay [7] deals with T1, Neuronal acetylcholine receptor subunit alpha-7. As to the kind of experiment: Agonist activity at human alpha7 receptor expressed in mouse Neuro2a cells assessed as induction of intracellular calcium level measured every 2 sec for 3 mins by fluorescence microplate reader analysis in presence of 2 uM alpha7 receptor antagonist alpha-cobratoxin. The format is cell-based.
For assay [8], the species on record is Rattus norvegicus. Nature of the assay: Antagonist activity at rat alpha4beta2* nAChR expressed in Xenopus oocytes assessed as inhibition of epibatidine-induced ion current at 50 uM preincubated with compound followed by 1 uM epibatidine addition along with compound treatment measured after 36 to 72 hrs by two electrode voltage clamp method. Format: cell-based. On the technique in general: Two-electrode voltage clamp holds a large cell at a set potential and records current.

The species entered for assay [9] is Gallus gallus. Nature of the assay: Antagonist activity at chicken alpha7/GlyR chimeric receptor expressed in Xenopus oocytes assessed as inhibition of acetylcholine-induced ion current at 50 uM preincubated with compound followed by 100 uM acetylcholine addition along with compound treatment measured after 36 to 72 hrs by two electrode voltage clamp method. Format: cell-based.

The species named for assay [10] is Rattus norvegicus. As to the kind of experiment: Activation of rat alpha4beta2* nAChR expressed in Xenopus oocytes at 50 uM after 36 to 72 hrs by two electrode voltage clamp method. Format: cell-based.
Assay [11] is filed under the species Gallus gallus. Nature of the assay: Activation of chicken alpha7/GlyR chimeric receptor expressed in Xenopus oocytes at 50 uM after 36 to 72 hrs by two electrode voltage clamp method. Format: cell-based.
In assay [12] the target is T1, Neuronal acetylcholine receptor subunit alpha-7. Nature of the assay: Antagonist activity at human alpha7 receptor expressed in mouse Neuro2a cells assessed as inhibition of acetylcholine iodide-induced intracellular calcium level at 300 uM preincubated with PNU-120596 for 20 mins followed by acetylcholine iodide addition along with compound treatment measured every 2 sec for 3 mins by fluorescence microplate reader analysis. Format: cell-based.

The species named for assay [13] is Rattus norvegicus. As to the kind of experiment: Selectivity ratio of Ki for Sprague-Dawley rat brain alpha7* nAChR to Ki for Wistar rat cerebral cortex alpha4beta2* nAChR. The format is tissue-based.
In assay [14] the target is T1, Neuronal acetylcholine receptor subunit alpha-7. Nature of the assay: Antagonist activity at human alpha7 receptor expressed in mouse Neuro2a cells assessed as inhibition of acetylcholine iodide-induced intracellular calcium level at 50 uM preincubated with PNU-120596 for 20 mins followed by acetylcholine iodide addition along with compound treatment measured every 2 sec for 3 mins by fluorescence microplate reader analysis. The format is cell-based.

T1 sequence (P36544 whole entry): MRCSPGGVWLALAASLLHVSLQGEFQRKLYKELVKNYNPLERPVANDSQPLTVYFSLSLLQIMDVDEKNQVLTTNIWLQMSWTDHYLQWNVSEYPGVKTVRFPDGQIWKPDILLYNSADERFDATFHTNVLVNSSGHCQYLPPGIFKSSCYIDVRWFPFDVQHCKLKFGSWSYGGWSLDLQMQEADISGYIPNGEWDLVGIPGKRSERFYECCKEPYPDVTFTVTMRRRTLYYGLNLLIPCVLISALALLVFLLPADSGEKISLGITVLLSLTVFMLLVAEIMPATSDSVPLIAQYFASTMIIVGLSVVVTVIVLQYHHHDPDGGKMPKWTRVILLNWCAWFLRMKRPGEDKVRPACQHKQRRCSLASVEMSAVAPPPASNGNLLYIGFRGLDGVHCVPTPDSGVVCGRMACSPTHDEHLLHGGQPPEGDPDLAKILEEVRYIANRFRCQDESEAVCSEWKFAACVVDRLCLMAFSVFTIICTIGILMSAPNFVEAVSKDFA

The pKi is −log10 of the Ki, conventionally taken in molar units. Higher therefore signals a small Ki. With `CN1CCC[C@H]1c1cccnc1` [NICOTINE], the pKi in assay [1] is 8.64.

For `C[N+]12CCC(CC1)C(NC(=O)c1ccc3ncccc3c1)C2` (stereo not given), the Activity in assay [2] and in [3] was < 20% in each case.

Take `C[N+]12CCC(C1)N(C(=O)c1ccc3cccnc3c1)CC2` (stereo not given): the Activity in assay [2] and in assay [3] was < 20% in each case.

`c1cnc2ccc(C3CN4CCC3CC4)cc2c1` (stereo not given): the Activity in assay [2] and in [3] was < 20% throughout.

Regarding `O=C(c1ccc2ncccc2c1)N1CCN2CCC1C2` (stereo not given), the Activity in assay [2] and in assay [3] was < 20% each time.

On to `O=C(c1cccc2cnccc12)N1CCN2CCC1C2` (stereo not given), for which the Activity in assay [2] and in assay [3] was < 20% each time.

Take `c1cc2cc(N3CCN4CCC3CC4)ccc2cn1`: the pKi was < 6.00 in assay [1] and 6.61 in [4]. Also, the Ratio Ki in assay [5] was determined as 3.

Consider `C[N+]12CCC(CC1)C(NC(=O)c1cccc3cnccc13)C2` (stereo not given), for which the Activity in [2] and in assay [3] was < 20% in each case.

For the molecule `C[N+]12CCC(CC1)N(C(=O)c1cccc3cnccc13)CC2`, the Activity in [2] and in assay [3] was < 20% in each case.

In assay [4], `Cc1ccc2oc(N3CCN4CCC3CC4)nc2n1` had a pKi of 7.87.

As to `C[N+]12CCC(C1)N(c1ccc3cnccc3c1)CC2` (stereo not given), the Activity in [2] and in [3] was < 20% each time.

On to `C[N+]12C=C(c3ccc4ncccc4c3)C(CC1)CC2`, for which the Activity in [2] and in assay [3] was < 20% throughout.

In the case of `C[N+]12CCC(C1)N(C(=O)c1cccc3cnccc13)CC2` (stereo not given), the Activity in assay [2] and in assay [3] was < 20% each time.

For `C[N+]12CCC(CC1)N(C(=O)c1ccc3cccnc3c1)CC2`, the Activity in assay [2] and in [3] was < 20% in each case.

Turning to `C1=C(c2ccc3ncccc3c2)C2CCN1CC2`, the Activity in [2] and in assay [3] was < 20% in each case.

With `O=C(NC1CN2CCC1CC2)c1cccc2cnccc12` (stereo not given), the Activity in [2] and in assay [3] was < 20% in each case.

Turning to `O=C(N[C@H]1CN2CCC1CC2)c1cc2cccc(Cl)c2s1` [ENCENICLINE], the pKi in assay [4] is 8.00.

As for `O=C(Oc1ccc(Br)cc1)N1CCN2CCC1CC2` [SSR180711], the pKi in assay [4] is 7.66.

Regarding `C[N+]12CCC(C1)N(C(=O)c1ccc3ncccc3c1)CC2` (stereo not given), the Activity in [2] and in assay [3] was < 20% each time.

For `C[N+]12CCC(C1)N(c1cccc3ncccc13)CC2` (stereo not given), the Activity in assay [2] and in assay [3] was < 20% each time.

Turning to `O=C(N[C@H]1CN2CCC1CC2)c1ccc(Cl)cc1` [PNU-282987], the pKi in assay [4] is 7.62.

On to `c1cc2cc(N3CCN4CCC3C4)ccc2cn1` (stereo not given), for which the Activity in assay [2] and in assay [3] was < 20% throughout.

Take `O=C(c1cccc2cnccc12)N1CCN2CCC1CC2`: the Activity in assay [2] and in assay [3] was < 20% each time.

For orientation: pEC50 means the EC50 on a negative log10 scale, so that one unit is a factor of ten. Turning to `c1cnc2ccc(N3CCN4CCC3CC4)cc2c1`, the pEC50 in assay [6] is 5.85. For the same molecule, the pKi in assay [1] was < 6.00; in assay [4] it was 7.02. The outcome in assay [7], in [10] and in assay [11] was inactive. The inhibition result in assay [8] and in assay [9] was “Active” each time. Moreover, in assay [5], the Ratio Ki was 10.

Regarding `c1cncc(C2CCC3CCN2CC3)c1` (stereo not given), in assay [4], the pKi was 7.96.

For the molecule `O=C(c1ccc2cccnc2c1)N1CCN2CCC1CC2`, the Activity in assay [2] and in [3] was < 20% throughout.

Take `C[N+]12CCC(CC1)N(C(=O)c1ccc3ncccc3c1)CC2`: the Activity in [2] and in assay [3] was < 20% in each case.

As to `c1cc(N2CCN3CCC2C3)c2cccnc2c1` (stereo not given), the Activity in assay [2] and in assay [3] was < 20% each time.

As for `O=C(NC1CN2CCC1CC2)c1ccc2ncccc2c1` (stereo not given), the Activity in assay [2] and in assay [3] was < 20% in each case.

Turning to `C[N+]12CCC(CC1)C(NC(=O)c1ccc3cccnc3c1)C2` (stereo not given), the Activity in [2] and in [3] was < 20% throughout.

Take `c1cnc2ccc(N3CCN4CCC3C4)cc2c1` (stereo not given): the pKi in [1] is 6.39; in assay [4], < 6.00. Moreover, the inhibition entry in assay [12], in assay [8] and in [9] was “Active” in each case. The Ratio Ki in assay [13] worked out at 2. The outcome in assay [10] and in assay [11] was inactive.

Turning to `c1cnc2cc(N3CCN4CCC3CC4)ccc2c1`, the pEC50 in [6] was 5.96. The figures for the pKi in [1] and in assay [4] were < 6.00 and 6.93, respectively. Also, the result in assay [7], in [10] and in assay [11] was inactive. Also, the inhibition entry in assay [8] and in [9] was “Active” in each case. For the same molecule, the Ratio Ki in assay [5] was determined as 3.

For `O=C(NC1CN2CCC1CC2)c1ccc2cccnc2c1` (stereo not given), in assay [6], the pEC50 is 5.80. Besides, the pKi in [1] is < 6.00; in assay [4] it was 6.54. Also, the result in [7], in assay [10] and in assay [11] was inactive. The inhibition entry in assay [14], in assay [8] and in assay [9] was “Active” in each case. In addition, the Ratio Ki in assay [5] amounted to 3.

On to `O=C(c1ccc2ncccc2c1)N1CCN2CCC1CC2`, for which the Activity in assay [2] and in assay [3] was < 20% in each case.

Take `C[N+]12CCC(C1)N(c1ccc3ncccc3c1)CC2` (stereo not given): the Activity in assay [2] and in [3] was < 20% each time.

With `O=C(c1ccc2cccnc2c1)N1CCN2CCC1C2` (stereo not given), the Activity in [2] and in assay [3] was < 20% throughout.

For `CCN1C[C@]2(COC(=O)c3ccccc3N3C(=O)CC(C)C3=O)CC[C@H](OC)[C@@]34C2[C@H](OC)[C@](O)(C13)[C@@]1(O)C[C@H](OC)[C@H]2C[C@@H]4[C@@H]1[C@H]2OC` (stereo not given in full), the pKi in assay [4] is 8.85.

Take `c1cc(N2CCN3CCC2CC3)c2cccnc2c1`: the Activity in [2] and in assay [3] was < 20% each time.

As to `c1cnc2cc(N3CCN4CCC3C4)ccc2c1` (stereo not given), the Activity in [2] and in [3] was < 20% throughout.
